# According to US20110070186A1 (priority 2009, published 2011):
# Tested on: DU-145 cells
# Type: cell-based, human
smiles,measurement,value
C=C1[C@@H](C)[C@H]2[C@H](Cc3ccccc3)NC(=O)[C@]23[C@H](OC(C)=O)/C=C/[C@@](C)(O)C(=O)[C@@H](C)C/C=C/[C@H]3[C@@H]1O [Cytochalasin-D],Effect on cell migration (in words),did not migrate
same,"Relative Wound Density at 24 Hours, Mean",3.3 ± 0.2
same,"Relative Wound Density at 24 Hours, Percent Relative to Media",4%
